Experimental data from US7807678B2, “Peptidomimetics of biologically active metallopeptides” (Palatin Technologies, Inc., priority 2001, dated 2010).

Legend:
Details in all cases: 1 μM compound; inhibition of 125I-NDP-α-MSH binding; mean of triplicates; results less than 0% reported as 0%
[1] = target: T1, MC1-R (B-16 mouse melanoma cells) (Mus musculus, UniProt Q01727); assay: Competitive inhibition binding assay, 125I-NDP-α-MSH, MC1-R
T1 construct: B-16 mouse melanoma cells (containing MC1-R); endogenous in cells; host or cells: B-16 mouse melanoma cells
T1 sequence (Q01727 whole entry): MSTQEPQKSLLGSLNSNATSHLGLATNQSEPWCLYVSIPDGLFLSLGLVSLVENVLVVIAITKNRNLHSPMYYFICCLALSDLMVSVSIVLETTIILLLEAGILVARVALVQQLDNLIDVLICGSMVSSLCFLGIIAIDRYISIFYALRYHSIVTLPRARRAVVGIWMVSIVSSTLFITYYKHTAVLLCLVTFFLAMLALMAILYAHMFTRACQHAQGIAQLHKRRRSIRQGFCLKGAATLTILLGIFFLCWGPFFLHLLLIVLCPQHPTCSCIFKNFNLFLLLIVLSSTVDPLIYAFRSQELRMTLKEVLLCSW
Description: (§1) The competitive inhibition binding assay was conducted using membranes prepared from hMC3-R, hMC4-R, hMC5-R, and B-16 mouse melanoma cells (containing MC1-R) using 0.4 nM ^125I-NDP-α-MSH (New England Nuclear, Boston, Mass., USA) in 50 mM HEPES buffer containing 1 mM MgCl2, 2 mM CaCl2, and 5 mM KCl, at pH 7.2. The assay tube also contained a chosen concentration of the test peptidomimetic of this invention, generally 1 μM, for determining its efficacy in inhibiting the binding of ^125I-NDP-α-MSH to its receptor.
(§2) Incubation was for 90 minutes at room temperature, after which the assay mixture was filtered and the membranes washed three times with ice cold buffer. The filter was dried and counted in a gamma counter for remaining radioactivity bound to the membranes. 100% specific binding was defined as the difference in radioactivity (cpm) bound to cell membranes in the absence and presence of 1 μM α-MSH. […] Each assay was conducted in triplicate and the actual mean values are described.

[2] = target: MC3-R (Homo sapiens, UniProt P41968); assay: Competitive inhibition binding assay, 125I-NDP-α-MSH, MC3-R; parameters: expressed in transfected cells
Chain of MC3-R (P41968 whole entry): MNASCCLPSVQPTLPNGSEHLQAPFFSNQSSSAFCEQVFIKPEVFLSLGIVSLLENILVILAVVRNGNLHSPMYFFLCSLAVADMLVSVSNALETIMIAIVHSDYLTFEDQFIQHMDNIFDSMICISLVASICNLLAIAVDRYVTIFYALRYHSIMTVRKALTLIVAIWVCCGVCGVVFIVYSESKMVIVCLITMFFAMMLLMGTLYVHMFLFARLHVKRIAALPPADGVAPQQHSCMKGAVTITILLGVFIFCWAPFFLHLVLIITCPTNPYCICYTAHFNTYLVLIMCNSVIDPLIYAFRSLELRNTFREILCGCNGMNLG
Description: as §1, §2

[3] = target: MC5-R (Homo sapiens, UniProt P33032); assay: Competitive inhibition binding assay, 125I-NDP-α-MSH, MC5-R; parameters: expressed in transfected cells
Chain of MC5-R (P33032 whole entry): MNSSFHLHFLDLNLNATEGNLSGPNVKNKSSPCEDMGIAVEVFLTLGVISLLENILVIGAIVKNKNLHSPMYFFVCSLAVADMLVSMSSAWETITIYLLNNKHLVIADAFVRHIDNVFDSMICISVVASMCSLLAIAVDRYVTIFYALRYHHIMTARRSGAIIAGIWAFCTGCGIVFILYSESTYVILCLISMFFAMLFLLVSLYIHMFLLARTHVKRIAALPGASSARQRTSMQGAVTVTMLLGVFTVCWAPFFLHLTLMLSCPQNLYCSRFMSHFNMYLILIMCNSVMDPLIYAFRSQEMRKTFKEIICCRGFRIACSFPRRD
Description: as §1, §2

[4] = target: MC4-R (Homo sapiens, UniProt P32245); assay: Competitive inhibition binding assay, 125I-NDP-α-MSH, MC4-R; parameters: expressed in transfected cells
Chain of MC4-R (P32245 whole entry): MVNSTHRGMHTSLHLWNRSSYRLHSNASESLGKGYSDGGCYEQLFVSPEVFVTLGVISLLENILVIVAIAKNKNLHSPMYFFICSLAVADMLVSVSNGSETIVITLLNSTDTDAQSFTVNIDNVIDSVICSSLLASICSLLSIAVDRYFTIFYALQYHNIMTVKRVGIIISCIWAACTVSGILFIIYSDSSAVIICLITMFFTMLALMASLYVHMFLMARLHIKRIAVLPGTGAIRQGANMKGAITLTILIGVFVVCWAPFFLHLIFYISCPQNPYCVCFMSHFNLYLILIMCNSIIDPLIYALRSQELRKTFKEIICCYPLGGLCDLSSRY
Description: as §1, §2

Structure (SMILES)	Inhibition at 1 μM MC1-R [1] [%]	Inhibition at 1 μM MC3-R [2] [%]	Inhibition at 1 μM MC5-R [3] [%]	Inhibition at 1 μM MC4-R [4] [%]
NCCCC[C@H]1C(=O)N2C(CC[C@@H]2COc2ccc3ccccc3c2)N1C(=O)[C@@H](Cc1ccccc1Cl)NC(=O)[C@@H](N)C1Cc2ccccc2C1 (some centres unmarked) [Example 90]	10	0	46	12
NCCCC[C@H]1C(=O)N2C(CC[C@@H]2COc2ccc3ccccc3c2)N1C(=O)[C@@H](Cc1ccccc1Cl)NC(=O)C1(N)CCc2ccccc21 (some centres unmarked) [Example 96]	39	0	17	12
[2H]NC(Cc1cnc[nH]1)C(=O)NC(Cc1ccccc1)C(=O)N1C(CCCNC(=N)N)C(=O)N2C(COc3ccc4ccccc4c3)CCC21 (centres unmarked) [Example 97]	99	30	28	69
NCCCCC1C(=O)N2C(COc3ccccc3)CCC2N1C(=O)C(N)Cc1ccc(Cl)cc1 (centres unmarked) [Example 103]	9	0	0	0
NCCCCC1C(=O)N2C(COc3ccccc3)CCC2N1C(=O)C(N)Cc1ccccc1Cl (centres unmarked) [Example 104]	0	4	0	0
NCCCC[C@H]1C(=O)N2C(CC[C@@H]2COc2ccccc2)N1C(=O)[C@@H](Cc1ccc(Cl)cc1)NC(=O)[C@@H]1Cc2ccccc2CN1 (some centres unmarked) [Example 106]	81	19	25	51

Further lines, results first:

Inhibition at 1 μM MC1-R [1] [%]	Inhibition at 1 μM MC3-R [2] [%]	Inhibition at 1 μM MC5-R [3] [%]	Inhibition at 1 μM MC4-R [4] [%]	Structure (SMILES)
21	0	17	0	NCCCC[C@H]1C(=O)N2C(CC[C@@H]2COc2ccc3ccccc3c2)N1C(=O)[C@@H](Cc1ccccc1Cl)NC(=O)[C@@H]1C[C@H](Oc2ccc3ccccc3c2)CN1 (some centres unmarked) [Example 91]
7	0	21	22	NCCCC[C@H]1C(=O)N2C(CC[C@@H]2COc2ccc3ccccc3c2)N1C(=O)[C@@H](Cc1ccccc1Cl)NC(=O)[C@@H]1C[C@H](Oc2ccccc2)CN1 (some centres unmarked) [Example 92]
47	12	18	79	NCCCC[C@H]1C(=O)N2C(CC[C@@H]2COc2ccc3ccccc3c2)N1C(=O)[C@@H](Cc1ccccc1Cl)NC(=O)[C@H]1Cc2ccccc2CN1 (some centres unmarked) [Example 93]
34	0	14	47	NCCCC[C@H]1C(=O)N2C(CC[C@@H]2COc2ccc3ccccc3c2)N1C(=O)[C@@H](Cc1ccccc1Cl)NC(=O)[C@@H]1Cc2ccccc2N1 (some centres unmarked) [Example 95]
11	13	14	16	NCCCC[C@H]1C(=O)N2C(CC[C@@H]2COc2ccc3ccccc3c2)N1C(=O)[C@@H](Cc1ccccc1Cl)NCc1ccccc1 (some centres unmarked) [Example 102]
